US10149887B2, “Peptides and peptidomimetics in combination with t cell activating and/or checkpoint inhibiting agents for cancer treatment” (CanBas Co., Ltd., priority 2015, dated 2018)
Like-named read-outs stand apart in the source and are kept apart here. Square brackets hold non-standard residues; d marks the D form. Peptide text beside a SMILES is read from it. dPhe(F5) = N[C@H](Cc1c(F)c(F)c(F)c(F)c1F)C(=O)O; dBpa = N[C@H](Cc1ccc(C(=O)c2ccccc2)cc1)C(=O)O; dCha = N[C@H](CC1CCCCC1)C(=O)O

Legend:
advanced solid tumors = settings: monotherapy, cited from earlier work
SK-OV-3 = assay: G2 checkpoint abrogation by CBP501 combined with cis-platin, flow cytometry; format: cell-based; settings: SK-OV-3, ovary, hMLH1; cis-platin 3 μg/ml 3 hr, then 45 hr
Method: (§1) The medium was aspirated, fresh medium without these compounds was added and the cells were incubated for an additional 45 hr. The cells including floating cells were harvested using trypsin-EDTA solution, incubated with Krishan's solution and analyzed for DNA content by flow cytometry as previously described.

NCI-H226 = assay: as above; format: cell-based; settings: NCI-H226, lung, SCC; cis-platin 3 μg/ml 3 hr, then 45 hr
Method: as §1

Panc1 = assay: as above; format: cell-based; settings: Panc1, pancreas; cis-platin 3 μg/ml 3 hr, then 45 hr
Method: as §1

HT-29 = assay: as above; format: cell-based; settings: HT-29, colon; cis-platin 3 μg/ml 3 hr, then 45 hr
Method: as §1

MK45 = assay: as above; format: cell-based; settings: MK45, stomach; cis-platin 3 μg/ml 3 hr, then 45 hr
Method: as §1

HCT116 = assay: as above; format: cell-based; settings: HCT116, colon, hMLH1; cis-platin 3 μg/ml 3 hr, then 45 hr
Method: as §1

NCI-H520 = assay: as above; format: cell-based; settings: NCI-H520, lung, SCC; cis-platin 3 μg/ml 3 hr, then 45 hr
Method: as §1

DU-145 = assay: as above; format: cell-based; settings: DU-145, prostate, MLH1; cis-platin 3 μg/ml 3 hr, then 45 hr
Method: as §1

MCF-7 = assay: as above; format: cell-based; settings: MCF-7, mammary gland; cis-platin 3 μg/ml 3 hr, then 45 hr
Method: as §1

SW620 = assay: as above; format: cell-based; settings: SW620, colon; cis-platin 3 μg/ml 3 hr, then 45 hr
Method: as §1

SW900 = assay: as above; format: cell-based; settings: SW900, lung, SCC; cis-platin 3 μg/ml 3 hr, then 45 hr
Method: as §1

CT26WT = assay: Analysis of tumor infiltrating lymphocytes in CT26WT tumors (flow cytometry); format: in vivo, mouse; settings: day 11
Method: CT26WT were subcutaneously inoculated into the left flank of female Balb/c mice. […] Then, tumors were extracted from mice on day 11, and digested with triple enzyme mix (collagenase, hyaluronidase and DNase) to obtain single cell suspension. The cells were treated with FcR blocker and stained with specific antibody for multi-color flow cytometry analysis including CD4, CD8, CD45, CD11b, Ly6G, Ly6C, F4/80, MHC class II and CD206. Quantitative data (FIG. 32) are shown as mean values with SEM (n=3-4 mice/group). *: p<0.05, **: p<0.01, n.s.: not significant (unpaired, 2-tailed student's t-test), as compaired with cells from vehicle-treated or PD-1-treated tumor.

Jurkat cells [1] = assay: M phase checkpoint abrogation / non specific toxicity, colchicine treated Jurkat cells; format: cell-based
Jurkat cells [2] = assay: Side effect of peptide used alone: Jurkat cell cycle disturbance (flow cytometry); format: cell-based; settings: dose that produced Jurkat cell cycle disturbance, peptide alone
Procedure, shortened: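 Cell-cycle profiles were obtained by flow cytometry after propidium iodide staining in Krishan's solution for 1 hr at 4 °C. The value is the peptide dose given alone that disturbed the cell cycle, seen as significant SubG1 (dead) cells or unusually variable DNA content.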

HUVEC = assay: Growth of normal human umbilical endothelial cells (HUVEC); format: cell-based; settings: peptide by itself
Method: Similar studies were performed using normal human umbilical endothelial cells (HUVEC).

[3] = Maximal tolerated dose in mouse by single injection; settings: in vivo, observed for a week
[4] = tested on: thrombin/antithrombin complex; assay: Thrombin/antithrombin complex in plasma of LPS treated mice (ELISA); format: in vivo, mouse; settings: C57BL/6 mice, CBP501 7.5 mg/kg, plasma 3 hours after
Excerpt: The data were obtained in each condition out of four animals.

[5] = Mouse serum treatment analysis (residual CBP501 by HPLC); format: in vitro ADME; settings: CBP501 10 mM, 37 degree
M1 and M2 macrophages = assay: Phagocytic activity of M1 and M2 macrophages (fluorescent beads, flow cytometry); format: cell-based, human; settings: in vitro
Method: Referring to FIGS. 19A and 19B, macrophages were obtained by stimulating human peripheral blood mononuclear cells by 0.32 uM of PMA and removing all suspension cells 48 hours of PMA stimulation. The cells were further incubated with 50 ng/ml IFN-gamma, 10 ng/ml LPS to obtain M1 phenotype, and 20 ng/ml IL-4 to obtaine M2 macrophages. Both treatment was with or without CBP501. The phagocytic activity was monitored by using fluorescent labelled beads and flow cytometry.

N=C(N)NCCC[C@@H](NC(=O)[C@@H](CCCNC(=N)N)NC(=O)[C@@H](CCC(N)=O)NC(=O)[C@@H](CCCNC(=N)N)NC(=O)[C@@H](CCCNC(=N)N)NC(=O)[C@@H](CCCNC(=N)N)NC(=O)[C@@H](CC1CCCCC1)NC(=O)[C@@H](Cc1c(F)c(F)c(F)c(F)c1F)NC(=O)[C@@H](CO)NC(=O)[C@@H](Cc1c[nH]c2ccccc12)NC(=O)[C@@H](CO)NC(=O)[C@H](N)Cc1ccc(C(=O)c2ccccc2)cc1)C(=O)O [CBP501, (d-Bpa)(d-Ser)(d-Trp)(d-Ser)(d-Phe-2,3,4,5,6-F)(d-Cha)(d-Arg)(d-Arg)(d-Arg)(d-Gln)(d-Arg)(d-Arg)] (H-[dBpa][dS][dW][dS][dPhe(F5)][dCha][dR][dR][dR][dQ][dR][dR]-OH; N-terminus and C-terminus assumed)
Stable disease (advanced solid tumors; 60-min i.v. infusion days 1, 8, 15 every 28 days): Two patients achieved 7 cycles of treatment with stable disease | Discontinuation due to toxicity (advanced solid tumors; days 1-8-15 every 28 days): No patients discontinued due to toxicity | G2 checkpoint abrogating dose of CBP501, cis-platin (SK-OV-3): 50 µM | G2 checkpoint abrogating dose of CBP501, cis-platin (NCI-H226): 0.4 µM | G2 checkpoint abrogating dose of CBP501, cis-platin (Panc1): >10 µM | G2 checkpoint abrogating dose of CBP501, cis-platin (HT-29): <2 µM | G2 checkpoint abrogating dose of CBP501, cis-platin (MK45): >10 µM | G2 checkpoint abrogating dose of CBP501, cis-platin (HCT116): <2 µM | G2 checkpoint abrogating dose of CBP501, cis-platin (NCI-H520): >10 µM | G2 checkpoint abrogating dose of CBP501, cis-platin (DU-145): 0.4 µM | G2 checkpoint abrogating dose of CBP501, cis-platin (MCF-7): >10 µM | G2 checkpoint abrogating dose of CBP501, cis-platin (SW620): >10 µM | G2 checkpoint abrogating dose of CBP501, cis-platin (SW900): >10 µM | CD8 (=CD45+CD8+) infiltration at tumor site, combined with CDDP and anti-PD1 antibody (CT26WT; CDDP 4 mg/kg + CBP501 6 mg/kg + anti-PD1 400 ug/mouse): statistically significant | CD8 (=CD45+CD8+) infiltration at tumor site, combined with CDDP (CT26WT; CDDP 4 mg/kg i.v. + CBP501 6 mg/kg i.v.): tended to increase | M2 macrophages (=F4/80+CD206+) in tumor (CT26WT; combined with CDDP or CDDP plus anti-PD1 antibody): decreased M2 macrophages | Non specific toxicity (M checkpoint abrogation), dose up to which absent (Jurkat cells [1]; 0.5 μg/ml colchicine, unchanged percentage of M phase arrested cells): > 50 µM | M phase cell cycle arrest and/or non specific toxicity induced by colchicine (in words) (Jurkat cells [1]; FIG. 12): does not affect M phase cell cycle arrest and/or non specific toxicity induced by colchicine | Appearance of side effect when used with Colchicine (Jurkat cells [1]; dose with 5 μg/ml colchicine that produced Jurkat cell cycle disturbance, 24 hours): >25 µM | Appearance of side effect when used alone (Jurkat cells [2]): >50 µM | Growth of normal cells (HUVEC) (HUVEC): does not affect the growth of HUVEC cells | MTD at 1 week ([3]; ip, single intra-peritoneal injection, read-out: MTD (ip)): 98.8 mg/kg | MTD at 1 week ([3]; single intravenous injection, read-out: MTD (iv)): 10 mg/kg | Thrombin/anti-thrombin complexes in vivo [4]: increased thrombin/anti-thrombin complexes | Residual peptide after 1 hr mouse serum treatment (Mouse serum treatment analysis) [5]: >90% | Phagocytosis of M1 and M2 macrophages (M1 and M2 macrophages): inhibited phagocytosis of both M1 and M2 macrophages
